Legend:
[1] = target: C3 convertase (CVF:Bb) (Homo sapiens, UniProt P00751); assay: C3 Convertase Assay (biochemical assay, compound contacted with CVF:Bb, then C3 substrate added)
Description: Various technologies are available for assessing provided compounds, compositions and methods. In some embodiments, a useful assay is an assay described below. […] In some embodiments, a purified, isolated or enriched C3 convertase is utilized. […] In some embodiments, a compound was first contacted with CVF:Bb, followed by addition of C3 substrates. As those skilled in the art will appreciate, products C3a and/or C3b could be detected through a number of technologies (e.g., antibodies specific for a product) and reduction of levels of one or both of them could be utilized to assess inhibition.

[2] = test system: complement alternative pathway; assay: Wieslab AP assay (Complement Alternative Pathway ELISA, human serum as source of complement); format: biochemical; conditions: read-out: B: Wieslab AP IC50 (nM) (alternative pathway)
Description: Among other things, the present disclosure provides compounds and compositions that can modulate complement activation. In some embodiments, provided technologies inhibit complement activation. In some embodiments, provided technologies inhibit C3 convertase. Various technologies are available for assessing provided compounds, compositions and methods. In some embodiments, a useful assay is an assay described below. In some embodiments, IC50 of a provided compound measured in an assay is about or no more than about 1000, 900, 800, 700, 600, 500, 400, 300, 200, 100, 90, 80, 70, 60, 50, 40, 30, 20, or 10 nM. In some embodiments, a useful assay is a biochemical assay assessing inhibition of C3 convertase activity by a provided compound. In some embodiments, a purified, isolated or enriched C3 convertase is utilized. In some embodiments, CVF:Bb (e.g., assembled from three components Cobra Venom Factor (CVF), Complement Factor B (FB) and Complement Factor D (FD)) was utilized (certain results are presented as “A” in the Table below). In some embodiments, a compound was first contacted with CVF:Bb, followed by addition of C3 substrates. As those skilled in the art will appreciate, products C3a and/or C3b could be detected through a number of technologies (e.g., antibodies specific for a product) and reduction of levels of one or both of them could be utilized to assess inhibition. In some embodiments, a useful assay is Wieslab© assay (certain results are presented as “B” in the Table below).
In some embodiments, classical and alternative pathway activity are assessed using Wieslab© technologies. In some embodiments, Wieslab© assay were performed with a commercially available kit, using a protocol adapted for measurement of complement inhibitory activity of compounds. In some embodiments, human serum was utilized as a positive control. In some embodiments, human serum serves as a source of complement proteins, and inhibition of complement activity of a serum by various compounds were assessed. In some embodiments, a kit is COMPL AP330, Complement Alternative Pathway ELISA, Eagle Biosciences. In some embodiments, a kit is COMPL CP310, Complement Classical Pathway ELISA, Eagle Biosciences. In some embodiments, kits are available from VWR (102994-104, Complement Alternative pathway ELISA, Eagle Biosciences, Inc.; 102994-106, Complement Classical pathway ELISA, Eagle Biosciences, Inc.).
In some embodiments, a useful procedure described below is utilized. • 1. Make fresh test compound stock at 1 mM. • 2. Test compound serial dilution: dilute the stock to working stock concentrations. Add DMSO to dilution buffer using same dilution factor for the working stock so the composition of all the serial diluted stock is the same. In some embodiments, stock was serial diluted from the working stock 1:4 (for classical pathway) or 1:2 (for alternative pathway) using new diluted dilution buffers. • 3. Dilute positive controls using the dilution buffer provided with the assay kit to 2× of the final conc., for classical pathway, 50.5×. Positive control is human serum, which contains complement proteins. • 4. Add 125 μL of test compound solution and 125 μL of diluted positive control to a 96 well polypropylene plate, mix gently and cover the plate and incubate at 4° C. for 30 min. • 5. Add 100 μL/well to the assay plate and incubate at 37° C. for 1 h. Typically, controls in the assay plate, for example, buffer alone for negative control, positive control alone to verify the complement activity of the reagent. • 6. Wash plate and add 100 μL/well conjugate, incubate at room temperature for 30 min. • 7. Wash plate and add 100 μL/well substrate, then incubate at room temperature for approximately 30 minutes. Periodically monitor the absorbance at 405 nm (OD405) in the positive control alone well. • 8. Once the OD405 is >1, read the whole plate immediately. Or stop the reaction by adding 100 μL of 5 mM EDTA to each well and read within 60 minutes.

[3] = test system: complement activation; conditions: relative to compstatin amidated at the C-terminus; published data; cited from earlier work

Chain of C3 convertase (CVF:Bb) (P00751 260-764 limits assumed): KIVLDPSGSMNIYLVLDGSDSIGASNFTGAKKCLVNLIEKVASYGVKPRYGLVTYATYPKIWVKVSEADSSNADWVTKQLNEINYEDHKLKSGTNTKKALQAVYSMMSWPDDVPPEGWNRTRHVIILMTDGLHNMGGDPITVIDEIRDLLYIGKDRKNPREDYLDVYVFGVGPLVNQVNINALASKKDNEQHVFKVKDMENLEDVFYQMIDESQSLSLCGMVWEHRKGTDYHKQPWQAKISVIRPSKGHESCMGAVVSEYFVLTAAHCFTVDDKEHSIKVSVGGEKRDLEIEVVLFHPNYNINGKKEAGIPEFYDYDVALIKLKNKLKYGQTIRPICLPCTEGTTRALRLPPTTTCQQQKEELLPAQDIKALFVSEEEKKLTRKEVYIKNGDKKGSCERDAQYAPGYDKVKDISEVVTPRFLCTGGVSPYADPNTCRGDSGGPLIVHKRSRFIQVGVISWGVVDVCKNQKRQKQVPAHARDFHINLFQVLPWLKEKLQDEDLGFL

| Compound | IC50 [1] [nM] | IC50 [2] [nM] | Activity over compstatin [3] [xmore] |
| --- | --- | --- | --- |
| COc1cc(C)c2[nH]ccc2c1CN1CCN(C)CC1c1ccc(C(=O)O)cc1 (stereo not drawn) | 163 | 1570 | – |
| COc1cc(C)c2[nH]ccc2c1CN1CCN(CCCF)CC1c1ccc(C(=O)O)cc1 (stereo not drawn) | 119 | 153 | – |
| CCN1CCN(Cc2c(OC)cc(C)c3[nH]ccc23)C(c2ccc(C(=O)O)cc2)C1 (stereo not drawn) | 219 | 205 | – |
| COc1cc(C)c2[nH]ccc2c1CN1CCN(C2CC2)CC1c1ccc(C(=O)O)cc1 (stereo not drawn) | 141 | 29 | – |
| C=CCN1CCN(Cc2c(OC)cc(C)c3[nH]ccc23)C(c2ccc(C(=O)O)cc2)C1 (stereo not drawn) | 250 | 1490 | – |
| COc1cc(C)c2[nH]ccc2c1CN1CCN(CCF)CC1c1ccc(C(=O)O)cc1 (stereo not drawn) | 65 | 107 | – |
| COc1cc(C)c2[nH]ccc2c1CN1CCN(CC(F)F)CC1c1ccc(C(=O)O)cc1 (stereo not drawn) | 76 | 36 | – |
| COc1cc(C)c2[nH]ccc2c1CN1CCN(CCC(F)(F)F)C[C@H]1c1ccc(C(=O)O)nc1 | 96 | 34 | – |
| COc1cc(C)c2[nH]ccc2c1CN1CCN(CCC(F)(F)F)C[C@@H]1c1ccc(C(=O)O)nc1 | 6440 | > 10000 | – |
| COc1cc(C)c2[nH]ccc2c1CN1CCN(Cc2ncc[nH]2)C[C@H]1c1ccc(C(=O)O)cc1 | > 10000 | 8860 | – |
| COc1cc(C)c2[nH]ccc2c1CN1CCN(Cc2ncc[nH]2)C[C@@H]1c1ccc(C(=O)O)cc1 | – | > 10000 | – |
| COc1cc(C)c2[nH]ccc2c1CN1CCN(C(C)CC(F)(F)F)C[C@H]1c1ccc(C(=O)O)cc1 (stereo partly drawn) | – | 110 | – |
| COc1cc(C)c2[nH]ccc2c1CN1CCN(CCC(F)(F)F)C[C@H]1c1ccc(C(=O)NS(C)(=O)=O)cc1 | 56 | 65 | – |
| COc1cc(C)c2[nH]ccc2c1CN1CCN(CC(F)(F)F)C[C@H]1c1ccc(C(=O)NS(C)(=O)=O)cc1 | 212 | 382 | – |
| COc1cc(C)c2[nH]ccc2c1CN1CCN(CC(C)(F)F)C[C@H]1c1ccc(C(=O)O)cc1 | 272 | 211 | – |
| COc1cc(C)c2[nH]ccc2c1CN1CCN(CCC(F)F)C[C@H]1c1ccc(C(=O)O)cc1 | 27 | 27 | – |
| COc1cc(C)c2[nH]ccc2c1CN1CC(=O)N(C)C[C@H]1c1ccc(C(=O)O)cc1 | 6400 | 1000 | – |
| COc1cc(C)c2[nH]ccc2c1CN1CCN(C)C(=O)[C@H]1c1ccc(C(=O)O)cc1 | 360 | 1000 | – |
| COc1cc(C)c2[nH]ccc2c1CN1CCN(C(C)C(F)F)C[C@H]1c1ccc(C(=O)O)cc1 (stereo partly drawn) | 228 | 230 | – |
| COc1cc(C)c2[nH]ccc2c1CN1CCN(CCO)C[C@H]1c1ccc(C(=O)O)cc1 | 350 | 128 | – |

| Compound | IC50 [1] [nM] | IC50 [2] [nM] | Activity over compstatin [3] [xmore] |
| --- | --- | --- | --- |
| [2H]C([2H])([2H])N1CCN(Cc2c(OC)cc(C)c3[nH]ccc23)[C@H](c2ccc(C(=O)O)cc2)C1 | 65 | 9 | – |
| COc1cc(C)c2[nH]ccc2c1CN1CCN(CCC(F)(F)F)C[C@H]1c1ccc(C(=O)O)cc1 | 29 | 13 | – |
| COc1cc(C)c2[nH]ccc2c1CN1CCN(CC(F)F)C[C@H]1c1ccc(C(=O)NS(C)(=O)=O)cc1 | 243 | 8 | – |
| COc1cc(C)c2[nH]ccc2c1CN1CCN(CC(F)(F)F)C[C@H]1c1ccc(C(=O)O)cc1 | 176 | 174 | – |
| COc1cc(C)c2[nH]ccc2c1CN1CCN(C)C[C@H]1c1ccc(C(=O)O)cc1 (single isomer, unassigned) | 45 | 64 | – |
| Cc1cc(C2CC2)c(CN2CCN(CC(F)F)C[C@H]2c2ccc(C(=O)O)cc2)c2cc[nH]c12 [drawing 450] | – | 396 | – |
| Ac-ICV(1-Nal)QDWGAHRCT-COOH [Ac V4(1-Nal)/H9A-OH] | – | – | 30 |
| Ac-ICV(2-Igl)QDWGAHRCT-CONH2 [Ac-V42Igl/H9A] | – | – | 39 |
| Ac-ICV(2-Igl)QDWGAHRCT-COOH [Ac-V42Igl/H9A-OH] | – | – | 37 |
| Ac-ICV(2-Nal)QDWGAHRCT-CONH2 [Ac-V4(2-Nal)/H9A] | – | – | 99 |
| Ac-ICV(2-Nal)QDWGAHRCT-COOH [Ac V4(2-Nal)/H9A-OH] | – | – | 38 |
| Ac-ICV(Bpa)QDWGAHRCT-CONH2 [Ac-V4(Bpa)/H9A] | – | – | 86 |
| Ac-ICV(Bpa)QDWGAHRCT-COOH [Ac-V4(Bpa)/H9A-OH] | – | – | 49 |
| Ac-ICVDhtQDWGAHRCT-COOH [Ac-V4Dht/H9A-OH] | – | – | 5 |
| Ac-ICVWQD(5fW)GAHRCT-CONH2 [Ac-V4W/W7(5fW)/H9A] | – | – | 121 |
| Ac-ICVWQDWGAHRCT-CONH2 (Ac-ICVWQDWGAHRCT-NH2; cysteine pairing not given here) [Ac-V4W/H9A, "compstatin analogs useful in the present disclosure"] | – | – | 45 |
| Ac-ICVWQDWGAHRCdT-COOH [Ac-V4W/H9A/T13dT-OH] | – | – | 55 |
| Ac-ICVYQDWGAHRCT-CONH2 [Ac-V4Y/H9A] | – | – | 14 |
| Ac-ICWVQDWGHHRCT-CONH2 (Ac-ICWVQDWGHHRCT-NH2; not fully specified (bridges); printed as Ac-ICWVQDWGHHRCT-CONH2; cysteine pairing not given here) [Ac-compstatin, "compstatin analogs useful in the present disclosure"] | – | – | 3 |
| H-GICV(6fW)QD(6fW)GAHRCTN-COOH [+G/V4(6fW)/W7(6fW)H9A + N-OH] | – | – | 126 |

Source: US20240360103A1, “COMPLEMENT INHIBITION” (Apellis Pharmaceuticals, Inc., priority 2021, published 2024)
